Experimental data published in US10676514B2, “CDCA1-derived peptide and vaccine containing same” (ONCOTHERAPY SCIENCE, INC., priority 2014, dated 2020).
“Also recorded” adds a separate entry of the source.

Tests used:
Format in all cases: cell-based, human
[1] = system: peptide-pulsed C1R-A33 cells; experiment: IFN-gamma ELISPOT assay of peptide-induced CTLs (HLA-A*3303); settings: CTLs induced from HLA-A*3303-positive donors, peptide-pulsed C1R-A33 vs control
Excerpt: (§1) Monocyte-derived dendritic cells (DCs) were used as the antigen-presenting cell to induce a cytotoxic T lymphocyte (CTL) response against peptides presented on human leukocyte antigens (HLAs). As described in the other sections, DCs were generated in vitro (Nakahara S et al., Cancer Res 2003, 63(14): 4112-8). Specifically, peripheral-blood mononuclear cells isolated from healthy volunteers (HLA-A*3303-positive) with the Ficoll-Paque plus solution (Pharmacia) were separated by attaching to plastic tissue culture dishes (Becton Dickinson) and concentrated as a monocyte fraction. The monocyte-concentrated population was cultured in the presence of 1000 IU/ml granulocyte macrophage colony-stimulating factor (R&D System) and 1000 IU/ml interleukin(IL)-4 (R&D System) in an AIM-V medium (Invitrogen) containing 2% heat-inactivated autologous serum (AS). After seven days of culturing, the cytokine-induced DCs were pulsed with 20 micro-g/ml each of the synthesized peptides in an AIM-V medium at 37 degrees C. for three hours in the presence of 3 micro-g/ml beta 2-microglobulin. The generated cells appeared to express on their cell surface DC-associated molecules such as CD80, CD83, CD86 and HLA class II (data not shown). Next, these peptide-pulsed DCs were inactivated by X-ray irradiation (20 Gy), and mixed in a 1:20 ratio with autologous CD8^+ T cells obtained by positive selection using the CD8 Positive Isolation Kit (Dynal). These culture products were seeded in a 48-well plate (Corning). Each well was made to contain 1.5×10^4 peptide-pulsed DCs, 3×10^5 CD8^+ T cells and 10 ng/ml IL-7 (R&D System) in 0.5 ml of the AIM-V/2% AS medium. Three days later, these culture products were added with a final concentration of 20 IU/ml IL-2 (CHIRON). On day 7 and day 14, T cells were further stimulated with peptide-pulsed autologous DCs. The DCs were prepared every time by the same method as above. On day 21, after the third peptide stimulation, CTLs were examined against the peptide-pulsed CIR-A33 cell by a human interferon (IFN)-gamma enzyme-linked immunospot (ELISPOT) assay (Tanaka H et al., Br J Cancer 2001, 84(1): 94-9; Umano Y et al., Br J Cancer 2001, 84(8): 1052-7; Uchida N et al., Clin Cancer Res 2004, 10(24): 8577-86; Suda T et al., Cancer Sci 2006, 97(5): 411-9; Watanabe T et al., Cancer Sci 2005, 96(8): 498-506).
(§2) Specifically, peptide-pulsed C1R-A33 (1×10^4 cells/well) was prepared as the stimulator cell. The induced CTLs, i.e., CTL lines and CTL clones, were used as the responder cell. The IFN-gamma ELISPOT assay and IFN-gamma ELISA were performed according to the manufacturer's manual.

[2] = system: peptide-pulsed C1R-A33; experiment: IFN-gamma ELISA of CTL lines and CTL clones (HLA-A*3303); settings: for IFN-gamma production of CTL lines: peptide-pulsed vs non-pulsed target cells, HLA-A*3303
Description: (§3) CTLs were propagated in culture using methods similar to those disclosed by Riddell et al. (Walter E A et al., N Engl J Med 1995, 333(16): 1038-44; Riddell S R et al., Nat Med 1996, 2(2): 216-23). The CTLs were co-cultured in a total of 25 ml AIM-V medium containing 5% AS (AIM-V/5% AS) and 40 ng/ml anti-CD3 antibody with two types of Mitomycin C-treated human B lymphoblastoid cell lines at 5×10^6 cells/flask. One day after beginning of the culturing, 120 IU/ml IL-2 was added to the culture. On days 5, 8 and 11, a fresh AIM-V/5% AS medium containing 30 IU/ml IL-2 was added to the culture (Tanaka H et al., Br J Cancer 2001, 84(1): 94-9; Umano Y et al., Br J Cancer 2001, 84(8): 1052-7; Uchida N et al., Clin Cancer Res 2004, 10(24): 8577-86; Suda T et al., Cancer Sci 2006, 97(5): 411-9; Watanabe T et al., Cancer Sci 2005, 96(8): 498-506).
(§4) Dilution of CTLs was carried out to make 0.3, 1 and 3 cells/well in 96 round-bottomed microtiter plates (Nalge Nunc International). The CTLs were co-cultured with two types of Mitomycin C-treated human B lymphoblastoid cell lines at 1×10^4 cells/well in a total of 150 micro-l/well AIM-V/5% AS medium with 30 ng/ml anti-CD3 antibody and 125 IU/ml IL-2. Ten days later, IL-2 was added to the medium at 50 micro-l/well to reach a final concentration of 125 IU/ml. On day 14, the CTL activity was tested, and the CTL clones were propagated using the same method as described above (Uchida N et al., Clin Cancer Res 2004, 10(24): 8577-86; Suda T et al., Cancer Sci 2006, 97(5): 411-9; Watanabe T et al., Cancer Sci 2005, 96(8): 498-506).
as §2

[3] = system: peptide-pulsed C1R-A11; experiment: IFN-gamma ELISA of CTL lines and CTL clones (HLA-A*1101); settings: for IFN-gamma production of CTL lines: peptide-pulsed vs non-pulsed target cells, HLA-A*1101
Description: as §3, §4
(§5) Specifically, peptide-pulsed C1R-A11 (1×10^4 cells/well) was prepared as the stimulator cell. The induced CTLs, i.e., CTL lines and CTL clones, were used as the responder cell. The IFN-gamma ELISPOT assay and IFN-gamma ELISA were performed according to the manufacturer's manual.

[4] = system: peptide-pulsed C1R-A11 cells; experiment: IFN-gamma ELISPOT assay of peptide-induced CTLs (HLA-A*1101); settings: CTLs induced from HLA-A*1101-positive donors, peptide-pulsed C1R-A11 vs control
Excerpt: as §1, with “(HLA-A*1101-positive)” for “(HLA-A*3303-positive)”, “C1R-A11 cells” for “CIR-A33 cell”
as §5

Row | Sequence | peptide-specific CTL activity (IFN-gamma production) [1] | IFN-gamma production of CTL lines [2] | also measured
1 | DILCPKAKR (a peptide derived from CDCA1) [SEQ ID NO: 60] | potent IFN-gamma production |  | 
2 | DTVQKLKNAR (a peptide derived from CDCA1) [SEQ ID NO: 69] | potent IFN-gamma production | potent IFN-gamma production | 
3 | ETADILCPK (a peptide derived from CDCA1) [SEQ ID NO: 5] | potent IFN-gamma production |  | IFN-gamma production of CTL clones ([3]; CTL clones by limiting dilution, peptide-pulsed C1R-A11, listed as CDCA1-A11-9-105): Potent IFN-gamma production; IFN-gamma production of CTL lines [3]: potent IFN-gamma production; peptide-specific CTL activity (IFN-gamma production) ([4]; listed as CDCA1-A11-9-105): potent IFN-gamma production; also recorded: significant specific CTL activity
4 | GIINFIHFR (a peptide derived from CDCA1) [SEQ ID NO: 3] | potent IFN-gamma production | potent IFN-gamma production | IFN-gamma production of CTL lines [3]: potent IFN-gamma production; IFN-gamma production of CTL clones ([2]; CTL clones by limiting dilution, peptide-pulsed C1R-A33, listed as CDCA1-A33-9-123): Potent IFN-gamma production; peptide-specific CTL activity (IFN-gamma production) ([4]; listed as CDCA1-A11-9-123): potent IFN-gamma production; also recorded: significant specific CTL activity
5 | NVAEIVIHIR (a peptide derived from CDCA1) [SEQ ID NO: 67] | potent IFN-gamma production | potent IFN-gamma production | 
6 | SGIINFIHFR (a peptide derived from CDCA1) [SEQ ID NO: 68] |  |  | peptide-specific CTL activity (IFN-gamma production) ([1]; listed as CDCA1-A33-10-122): no specific IFN-gamma production; also recorded: specific IFN-gamma production was not observed
7 | TVQKLKNAR (a peptide derived from CDCA1) [SEQ ID NO: 28] | potent IFN-gamma production |  | 
